Activity calls are given as the source filed them. No cut-off for these calls is given here.
Key:
[1] = molecular target: T1, von Hippel-Lindau disease tumor suppressor/Hemagglutinin (Homo sapiens, UniProt P03452+P40337); assay: Protac activity at VHL (unknown origin)/influenza A hemagglutinin transfected in HEK293T cells assessed as degradation of hemagglutinin incubated for 24 hrs by Western blot analysis; type: cell-based; details: dose 0.03-33.3 µM, DDE = dose-dependent effect
Target sequence in this assay (P03452 whole entry, looked up): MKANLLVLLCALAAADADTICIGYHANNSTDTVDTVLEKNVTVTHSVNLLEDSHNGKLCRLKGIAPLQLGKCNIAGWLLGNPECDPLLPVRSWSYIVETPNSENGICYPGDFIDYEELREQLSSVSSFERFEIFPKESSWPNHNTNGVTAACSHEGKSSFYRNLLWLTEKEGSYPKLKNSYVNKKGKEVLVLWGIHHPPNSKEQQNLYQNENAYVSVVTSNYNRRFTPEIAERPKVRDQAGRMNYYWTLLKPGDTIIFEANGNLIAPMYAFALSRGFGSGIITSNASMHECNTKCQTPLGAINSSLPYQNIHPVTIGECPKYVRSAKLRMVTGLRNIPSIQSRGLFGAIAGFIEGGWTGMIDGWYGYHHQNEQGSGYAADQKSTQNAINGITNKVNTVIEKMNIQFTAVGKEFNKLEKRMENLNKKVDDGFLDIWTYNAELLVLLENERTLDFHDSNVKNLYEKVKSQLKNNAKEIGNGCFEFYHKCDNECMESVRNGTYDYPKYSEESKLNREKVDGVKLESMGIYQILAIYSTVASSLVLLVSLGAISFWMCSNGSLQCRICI
Target sequence in this assay (P40337 whole entry, looked up): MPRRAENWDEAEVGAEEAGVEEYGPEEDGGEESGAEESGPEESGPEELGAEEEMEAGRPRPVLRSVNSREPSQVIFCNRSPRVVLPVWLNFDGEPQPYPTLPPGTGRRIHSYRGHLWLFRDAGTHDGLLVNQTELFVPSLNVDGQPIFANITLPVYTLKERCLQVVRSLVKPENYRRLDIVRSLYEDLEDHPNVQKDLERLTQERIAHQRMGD

[2] = molecular target: T1, von Hippel-Lindau disease tumor suppressor/Hemagglutinin; assay: Protac activity at VHL (unknown origin)/influenza A hemagglutinin transfected in HEK293T cells assessed as degradation of hemagglutinin incubated for 12 hrs by Western blot analysis; type: cell-based; details: dose 0.39-25 µM, DDE = dose-dependent effect
Target sequence in this assay (P03452 whole entry, looked up): as the sequence (P03452 whole entry, looked up) above
Target sequence in this assay (P40337 whole entry, looked up): as the sequence (P40337 whole entry, looked up) above

[3] = molecular target: T1, von Hippel-Lindau disease tumor suppressor/Hemagglutinin; assay: Protac activity at VHL (unknown origin)/influenza A hemagglutinin transfected in HEK293T cells assessed as degradation of hemagglutinin at 33 uM incubated for 24 hrs by Western blot analysis relative to control; type: cell-based
Target sequence in this assay (P03452 whole entry, looked up): as the sequence (P03452 whole entry, looked up) above
Target sequence in this assay (P40337 whole entry, looked up): as the sequence (P40337 whole entry, looked up) above

HEK-293T = assay: Cytotoxicity against HEK293T cells assessed as reduction in cell viability at 50 uM incubated for 36 hrs by Celltiter-Glo assay; type: toxicity, cell-based; details: human
Hemagglutinin = Hemagglutinin (Influenza A virus, UniProt B4URE7); assay: Binding affinity to recombinant influenza A hemagglutinin assessed as dissociation constant by SPR assay
[4] = Elimination half life in BALB/c mouse infected with Influenza A A/WSN/33 (H1N1) virus at 10 mg/kg, iv measured after 24 hrs by LC-MS analysis; type: ADME, organism-based; details: in vivo, read-out: LambdaZ (converted)
[5] = MRT in BALB/c mouse infected with Influenza A A/WSN/33 (H1N1) virus at 50 mg/kg, po measured after 24 hrs by LC-MS analysis; type: ADME, organism-based; details: in vivo
Influenza A virus [6] = assay: Antiviral activity against Influenza A A/WSN/33 (H1N1) infected in HEK293T cells incubated for 12 hrs; type: functional, organism-based; details: HEK-293T
[7] = Cmax in BALB/c mouse infected with Influenza A A/WSN/33 (H1N1) virus at 50 mg/kg, po measured after 24 hrs by LC-MS analysis; type: ADME, organism-based; parameters: time 24 hrs, dose 50 mg/kg, route po; details: in vivo
[8] = Cmax in BALB/c mouse infected with Influenza A A/WSN/33 (H1N1) virus at 10 mg/kg, iv measured after 24 hrs by LC-MS analysis; type: ADME, organism-based; parameters: time 24 hrs, dose 10 mg/kg, route iv; details: in vivo
Influenza A virus [9] = assay: Antiviral activity against Influenza A A/WSN/33 (H1N1) infected in BALB/c mouse assessed as plaque reduction at 10 to 20 mg/kg/day, iv incubated for 4 to 16 days (reference value: 2.7x10^6 PFU/g); type: functional; details: dose 10-20 mg/kg/day, time 4-16 day
[10] = molecular target: T1, von Hippel-Lindau disease tumor suppressor/Hemagglutinin; assay: Protac activity at VHL (unknown origin)/influenza A hemagglutinin transfected in HEK293T cells assessed as accumulation of ubiquitinated hemagglutinin at 20 uM preincubated for 4 hrs followed by proteosome inhibitor, MG-132 addition and measured after 4 hrs by Immunoprecipitation analysis; type: cell-based
Target sequence in this assay (P03452 whole entry, looked up): as the sequence (P03452 whole entry, looked up) above
Target sequence in this assay (P40337 whole entry, looked up): as the sequence (P40337 whole entry, looked up) above

[11] = Acute toxicity in BALB/c mouse infected with Influenza A A/WSN/33 (H1N1) virus assessed as mortality at 10 to 20 mg/kg/day, iv administered for 5 days starting from 2 hrs post infection and measured daily for 14 days; type: organism-based; details: in vivo, 336 h, dose 10-20 mg/kg/day, time 14 day
[12] = molecular target: T1, von Hippel-Lindau disease tumor suppressor/Hemagglutinin; assay: Protac activity at VHL (unknown origin)/influenza A hemagglutinin transfected in HEK293T cells assessed as degradation of hemagglutinin incubated for 7 to 10 hrs by Western blot analysis; type: cell-based; details: time 7-10 hrs
Target sequence in this assay (P03452 whole entry, looked up): as the sequence (P03452 whole entry, looked up) above
Target sequence in this assay (P40337 whole entry, looked up): as the sequence (P40337 whole entry, looked up) above

Influenza A virus [13] = assay: Antiviral activity against Influenza A A/WSN/33 (H1N1) infected in BALB/c mouse assessed as fold reduction plaque count at 10 to 20 mg/kg/day, iv incubated for 4 to 16 days relative to control; type: functional; details: dose 10-20 mg/kg/day, time 4-16 day
[14] = Oral bioavailability in BALB/c mouse infected with Influenza A A/WSN/33 (H1N1) virus at 50 mg/kg measured after 24 hrs by LC-MS analysis; type: ADME, organism-based; details: in vivo
Influenza A virus [15] = assay: Antiviral activity against Influenza A A/Aichi/2/68 (H3N2) infected in HEK293T cells incubated for 12 hrs; type: functional, organism-based; details: HEK-293T
Influenza A virus [16] = assay: Antiviral activity against influenza A A/WSN/33 (H1N1) infected in HEK293T cells assessed as reduction in hemagglutinin level at virion replication and release stage at 25 uM mesured after 3 to 9 hrs by immunofluorescence based confocal microscopic analysis; type: functional, organism-based; details: time 3-9 hrs
[17] = Tmax in BALB/c mouse infected with Influenza A A/WSN/33 (H1N1) virus at 50 mg/kg, po administered as single dose measured after 24 hrs by LC-MS analysis; type: ADME, organism-based; details: in vivo
[18] = molecular target: T1, von Hippel-Lindau disease tumor suppressor/Hemagglutinin; assay: Protac activity at VHL (unknown origin)/influenza A hemagglutinin transfected in HEK293T cells assessed as degradation of hemagglutinin incubated for 10 hrs by Western blot analysis; type: cell-based
[19] = MRT in BALB/c mouse infected with Influenza A A/WSN/33 (H1N1) virus at 10 mg/kg, iv measured after 24 hrs by LC-MS analysis; type: ADME, organism-based; details: in vivo
[20] = Elimination half life in BALB/c mouse infected with Influenza A A/WSN/33 (H1N1) virus at 50 mg/kg, po measured after 24 hrs by LC-MS analysis; type: ADME, organism-based; details: in vivo, read-out: LambdaZ (converted)
[21] = AUCinfinity in BALB/c mouse infected with Influenza A A/WSN/33 (H1N1) virus at 50 mg/kg, po measured after 24 hrs by LC-MS analysis; type: ADME, organism-based; parameters: time 24 hrs, dose 50 mg/kg, route po; details: in vivo
[22] = Cytotoxicity against HEK293T cells assessed as cell viability at 50 uM incubated for 36 hrs by Celltiter-Glo assay relative to control; type: toxicity, cell-based, HEK-293T; details: human, read-out: Activity
[23] = Acute toxicity in BALB/c mouse infected with Influenza A A/WSN/33 (H1N1) virus assessed as decrease in body weight at 10 to 20 mg/kg/day, iv administered for 5 days starting from 2 hrs post infection and measured daily for 14 days; type: organism-based; details: in vivo, 336 h, dose 10-20 mg/kg/day, time 14 day
Influenza B virus = assay: Antiviral activity against Influenza B B/Florida/4/2006 infected in HEK293T cells incubated for 12 hrs; type: functional, organism-based; details: B/Florida/4/2006, HEK-293T
[24] = molecular target: T1, von Hippel-Lindau disease tumor suppressor/Hemagglutinin; assay: Protac activity at VHL (unknown origin)/influenza A hemagglutinin transfected in HEK293T cells assessed as reduction in hemagglutinin level at 10 uM by immunoblotting analysis relative to control; type: cell-based; parameters: scale not given: the % may be the effect or the level left
Target sequence in this assay (P03452 whole entry, looked up): as the sequence (P03452 whole entry, looked up) above
Target sequence in this assay (P40337 whole entry, looked up): as the sequence (P40337 whole entry, looked up) above

Influenza A virus [25] = assay: Antiviral activity against Influenza A A/California/08/2009 (H1N1) infected in HEK293T cells incubated for 12 hrs; type: functional, organism-based; details: HEK-293T
Influenza A virus [26] = assay: Antiviral activity against Influenza A A/WSN/33 (H1N1) infected in BALB/c mouse assessed as reduction in virus induced inflammation at 10 mg/kg, iv measured on day 4 by histopathological staining based analysis; type: functional, organism-based; details: time 4.0 day
Influenza A virus [27] = assay: Antiviral activity against Influenza A A/WSN/33 (H1N1) infected in BALB/c mouse assessed as reduction in virus induced lung lesion at 10 mg/kg, iv measured on day 4 by histopathological staining based analysis; type: functional, organism-based; details: time 4.0 day
[28] = AUCinfinity in BALB/c mouse infected with Influenza A A/WSN/33 (H1N1) virus at 10 mg/kg, iv measured after 24 hrs by LC-MS analysis; type: ADME, organism-based; parameters: dose 10 mg/kg, time 24 hrs, route iv; details: in vivo
Influenza A virus [29] = assay: Antiviral activity against Influenza A A/WSN/33 (H1N1) infected in BALB/c mouse assessed as recovery of body weight at 10 to 20 mg/kg/day, iv administered for 5 days starting from 2 hrs post infection and measured daily for 14 days; type: functional, organism-based; details: dose 10-20 mg/kg/day, time 14.0 day
[30] = molecular target: von Hippel-Lindau disease tumor suppressor (Homo sapiens, UniProt P40337); assay: Binding affinity to human recombinant VHL assessed as dissociation constant by SPR assay
Influenza A virus [31] = assay: Antiviral activity against Influenza A A/WSN/33 (H1N1) infected in dog MDCK cells assessed as inhibition of viral induced cytopathic effect incubated for 40 hrs by CellTiter-Glo assay; type: functional, organism-based
[32] = molecular target: T2, Protein cereblon/Hemagglutinin (Influenza A virus) (UniProt B4URE7+Q96SW2); assay: Protac activity at CRBN (unknown origin)/Influenza A hemagglutinin transfected in HEK293T cells assessed as induction of hemagglutinin degradation at 0.78 uM incubated for 24 hrs by Western blot analysis relative to control; type: cell-based
[33] = molecular target: T2, Protein cereblon/Hemagglutinin (Influenza A virus); assay: Protac activity at CRBN (unknown origin)/Influenza A hemagglutinin transfected in HEK293T cells assessed as induction of hemagglutinin degradation at 50 uM incubated for 12 hrs by Western blot analysis relative to control; type: cell-based
[34] = molecular target: T1, von Hippel-Lindau disease tumor suppressor/Hemagglutinin; assay: Protac activity at VHL (unknown origin)/influenza A hemagglutinin transfected in HEK293T cells assessed as degradation of hemagglutinin at 0.39 to 25 uM incubated for 10 hrs by Western blot analysis; type: cell-based; details: dose 0.39-25 µM

Chain of von Hippel-Lindau disease tumor suppressor (P40337 whole entry): as the sequence (P40337 whole entry, looked up) above

Cc1ncsc1-c1ccc(CNC(=O)[C@@H]2C[C@@H](O)CN2C(=O)[C@@H](NC(=O)CCOCCOCCNC(=O)[C@]23CCC(C)(C)C[C@H]2C2=CC[C@@H]4[C@@]5(C)CC[C@H](O)C(C)(C)[C@@H]5CC[C@@]4(C)[C@]2(C)CC3)C(C)(C)C)cc1
Activity [1]: Dde | Activity [2]: Dde | Activity [3]: 50%

Cc1ncsc1-c1ccc(CNC(=O)[C@@H]2CCCN2C(=O)[C@@H](NC(=O)CCOCCOCCOCCNC(=O)[C@]23CCC(C)(C)C[C@H]2C2=CC[C@@H]4[C@@]5(C)CC[C@H](O)C(C)(C)[C@@H]5CC[C@@]4(C)[C@]2(C)CC3)C(C)(C)C)cc1
Activity (HEK-293T): 85% | Kd (Hemagglutinin): 3.18 µM | half-life [4]: 2.87 h | MRT [5]: 1.56 h | EC50 (Influenza A virus [6]): 4.53 µM | Cmax [7]: 2070 ng/mL | Cmax [8]: 2070 ng/mL | Activity (Influenza A virus [9]): 8.1 10^5PFU/g | Activity [10]: Active | Activity [11]: Non-Toxic | Activity [12]: Active | fold change (FC) (Influenza A virus [13]): 3.5 | bioavailability [14]: 6.8% | EC50 (Influenza A virus [15]): 8.98 µM | Activity [1]: Dde | Activity [2]: Dde | Activity (Influenza A virus [16]): Active | Tmax [17]: 0.5 h | DC50 [18]: 1.44 µM | MRT [19]: 0.98 h | half-life [20]: 2.63 h | AUC(0-inf) [21]: 2550 ng·h/mL | viability at 36 h, 50 µM [22]: > 85% | Activity [3]: 50% | Activity [23]: Non-Toxic | EC50 (Influenza B virus): > 25 µM | Activity [24]: 60% | EC50 (Influenza A virus [25]): 5.98 µM | Activity (Influenza A virus [26]): Active | Activity (Influenza A virus [27]): Active | AUC(0-inf) [28]: 7450 ng·h/mL | Activity (Influenza A virus [29]): Active | Kd [30]: 9.25 µM

Cc1ncsc1-c1ccc(CNC(=O)[C@@H]2CCCN2C(=O)[C@@H](N)C(C)(C)C)cc1
Kd [30]: 4.97 µM

CC1(C)CC[C@]2(C(=O)O)CC[C@]3(C)C(=CC[C@@H]4[C@@]5(C)CC[C@H](O)C(C)(C)[C@@H]5CC[C@]43C)[C@@H]2C1 [OLEANOLIC_ACID]
Kd (Hemagglutinin): 10.9 µM | IC50 (Influenza A virus [31]): > 200 µM

CC1(C)CC[C@]2(C(=O)NCCOCCOCCOCCNc3cccc4c3C(=O)N(C3CCC(=O)NC3=O)C4=O)CC[C@]3(C)C(=CC[C@@H]4[C@@]5(C)CC[C@H](O)C(C)(C)[C@@H]5CC[C@]43C)[C@@H]2C1 (some centres undefined)
Activity [32]: > 50% | Activity [33]: 20%

Cc1ncsc1-c1ccc(CNC(=O)[C@@H]2C[C@@H](O)CN2C(=O)[C@@H](NC(=O)CCOCCNC(=O)[C@]23CCC(C)(C)C[C@H]2C2=CC[C@@H]4[C@@]5(C)CC[C@H](O)C(C)(C)[C@@H]5CC[C@@]4(C)[C@]2(C)CC3)C(C)(C)C)cc1
Activity [1]: Dde | Activity [2]: Dde | Activity [3]: 50%

Cc1ncsc1-c1ccc(CNC(=O)[C@@H]2C[C@@H](O)CN2C(=O)[C@@H](NC(=O)CCOCCOCCOCCOCCOCCOCCOCCNC(=O)[C@]23CCC(C)(C)C[C@H]2C2=CC[C@@H]4[C@@]5(C)CC[C@H](O)C(C)(C)[C@@H]5CC[C@@]4(C)[C@]2(C)CC3)C(C)(C)C)cc1
Activity (HEK-293T): Toxic | Activity [18]: Active | Activity [34]: Active

Cc1ncsc1-c1ccc(CNC(=O)[C@@H]2C[C@@H](O)CN2C(=O)[C@@H](NC(=O)CCOCCOCCOCCOCCOCCNC(=O)[C@]23CCC(C)(C)C[C@H]2C2=CC[C@@H]4[C@@]5(C)CC[C@H](O)C(C)(C)[C@@H]5CC[C@@]4(C)[C@]2(C)CC3)C(C)(C)C)cc1
Activity (HEK-293T): Toxic

Cc1ncsc1-c1ccc(CNC(=O)[C@@H]2C[C@@H](O)CN2C(=O)[C@@H](NC(=O)CCOCCOCCOCCOCCOCCOCCOCCOCCOCCOCCNC(=O)[C@]23CCC(C)(C)C[C@H]2C2=CC[C@@H]4[C@@]5(C)CC[C@H](O)C(C)(C)[C@@H]5CC[C@@]4(C)[C@]2(C)CC3)C(C)(C)C)cc1
Activity (HEK-293T): Toxic
